# Reference: PMC3921447, “Homologous and heterologous desensitization of guanylyl cyclase-B signaling in GH3 somatolactotropes” (Cell and Tissue Research, 2013)
# Where two headings read alike, the source gives them in different places. Ends that are not written are not given here.
# Tests used:
# GC-B [1] = conditions: αT3-1 cells, cited from earlier work
# From the text: Experimental paradigms to investigate receptor desensitization are often performed in one of two ways: time-course studies of a single continuous exposure to ligand or pre-treatment and subsequent re-exposure to the same ligand. Our current studies involved the use of both of these approaches to examine particulate guanylyl cyclase signaling in GH3 cells, similar to previous studies investigating PACAP signaling in gonadotropes (McArdle and Forrest-Owen [1997]). Time-course studies of CNP-stimulated cGMP accumulation in GH3 cells have shown a rapid elevation of cGMP levels within 5 min of CNP ... || The other major mechanism mediating heterologous desensitization of GC-A and GC-B signaling is the PKC pathway (Potter et al. [2006]). We examined the effects of pre-treatment with TRH, PMA, or PACAP. […] This is in agreement with the predominant expression of vasoactive intestinal peptide activated receptor 2, which is known preferentially to activate cAMP and PKA (Hao et al. [2006]). In contrast, pre-treatments with two known activators of PKC, TRH and PMA do ...
# [2] = tested on: human airway smooth muscle cells; conditions: ref Hamad and Knox [1999]; cited from earlier work
# From the text: (§1) The other major mechanism mediating heterologous desensitization of GC-A and GC-B signaling is the PKC pathway (Potter et al. [2006]). We examined the effects of pre-treatment with TRH, PMA, or PACAP. […] This is in agreement with the predominant expression of vasoactive intestinal peptide activated receptor 2, which is known preferentially to activate cAMP and PKA (Hao et al. [2006]). In contrast, pre-treatments with two known activators of PKC, TRH and PMA do ...
# GC-B [3] = target: T1, GC-B (Rattus norvegicus, UniProt P16067); test: Heterologous desensitization of CNP-stimulated (GC-B) cGMP accumulation in GH3 cells; format: cell-based; conditions: then 100 nM CNP 15 min with 1 mM IBMX, n = 3
# T1 construct: rapid homologous desensitization of endogenous GC-B receptors in GH3 cells; endogenous in cells; host or cells: GH3 rat somatolactotrope cells
# T1 sequence (P16067 17-1047): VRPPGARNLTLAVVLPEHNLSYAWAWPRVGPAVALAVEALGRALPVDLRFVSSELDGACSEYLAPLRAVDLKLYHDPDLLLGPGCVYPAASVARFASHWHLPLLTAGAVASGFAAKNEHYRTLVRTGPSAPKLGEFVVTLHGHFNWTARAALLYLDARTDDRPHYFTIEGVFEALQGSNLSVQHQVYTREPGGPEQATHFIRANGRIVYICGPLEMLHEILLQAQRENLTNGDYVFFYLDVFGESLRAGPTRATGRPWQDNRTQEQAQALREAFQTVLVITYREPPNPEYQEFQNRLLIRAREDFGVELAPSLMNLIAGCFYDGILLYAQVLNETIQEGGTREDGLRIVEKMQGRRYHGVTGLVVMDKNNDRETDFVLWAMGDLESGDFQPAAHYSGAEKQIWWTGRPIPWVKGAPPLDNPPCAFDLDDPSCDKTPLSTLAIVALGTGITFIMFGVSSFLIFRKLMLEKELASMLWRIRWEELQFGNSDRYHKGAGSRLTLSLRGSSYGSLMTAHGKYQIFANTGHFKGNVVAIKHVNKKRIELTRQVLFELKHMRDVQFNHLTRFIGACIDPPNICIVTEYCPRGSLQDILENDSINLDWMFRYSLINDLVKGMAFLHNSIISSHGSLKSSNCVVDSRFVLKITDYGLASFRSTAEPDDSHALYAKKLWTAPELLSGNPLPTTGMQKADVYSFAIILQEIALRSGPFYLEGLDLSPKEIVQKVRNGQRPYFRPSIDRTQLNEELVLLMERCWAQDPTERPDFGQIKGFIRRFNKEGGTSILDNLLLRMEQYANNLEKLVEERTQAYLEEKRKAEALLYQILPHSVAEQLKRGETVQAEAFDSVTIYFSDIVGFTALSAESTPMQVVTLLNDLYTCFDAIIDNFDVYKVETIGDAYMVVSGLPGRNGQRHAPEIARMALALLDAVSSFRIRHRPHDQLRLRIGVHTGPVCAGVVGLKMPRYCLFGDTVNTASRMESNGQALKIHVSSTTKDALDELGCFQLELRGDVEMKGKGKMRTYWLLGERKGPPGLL
# From the text: (§2) Sphingolipids and calcium have been implicated in regulating natriuretic peptide signaling (Abbey-Hosch et al. [2004]; Abbey and Potter [2002]). Therefore, we examined the role of sphingosine-1-phosphate (S1P) on CNP-stimulated cGMP accumulation. […] However, S1P pre-treatment did cause desensitization of CNP-stimulated cGMP accumulation (by 30 ± 2.7 % compared with control, **P < 0.01).
# (§3) Fig. 6 Evidence of sphingosine-mediated but not calcium-mediated, heterologous desensitization of GC-B signaling in GH3 somatolactotrope cells. GH3 cells were pre-treated with PSS containing either (a, b) 10 μM sphingosine-1-phosphate (S1P) or (c, d) 1 μM A23187 (calcium ionophore) for 30 min in the absence of IBMX, before a 15-min stimulation with either 100 nM CNP (a, c) or 100 nM ANP (b, d) in the presence of 1 mM IBMX.
# (§4) Subsequent experiments examined the potential regulation of GC-B signaling by other peptide hormones. To determine whether the GC-B receptor underwent heterologous desensitization in GH3 cells, the effect of three known activators of PKC on CNP-stimulated cGMP accumulation was analyzed. […] To establish whether the TRH-induced heterologous desensitization of GC-B signaling was PKC-dependent, GH3 cells were pre-treated with either 0 or 1 μM GF109203X for 30 min to inhibit PKC activity. After this, cells were further pre-treated in the absence or presence of GF109203X and 0 or 100 nM TRH for a further 30 min, prior to stimulation with 0 or 100 nM CNP for a final 15-min stimulation in the presence of 1 mM IBMX.
# (§5) Fig. 7 Protein kinase C (PKC)-dependent heterologous desensitization mediates the effects of thyrotrophin-releasing hormone (TRH) on CNP-stimulated GC-B signaling in GH3 somatolactotrope cells. a GH3 cells were pre-treated with PSS containing either 0 or 100 nM TRH, phorbol-12-myristate-13-acetate (PMA), or pituitary adenylate cyclase-activating polypeptide (PACAP) for 30 min in the absence of IBMX, before a 15-min stimulation with either 0 or 100 nM CNP in the presence of 1 mM IBMX.
# growth hormone secretion = conditions: ref Hartt et al. [1995]; Shimekake et al. [1994]; cited from earlier work
# From the text: Both humans and mice with mutations in the genes encoding either CNP or its receptor, GC-B, suffer from severe growth disorders (Chusho et al. [2001]) and, in some cases, growth hormone deficiency (Tamura et al. [2004]). Despite significant homology between the three natriuretic peptides and between their receptors, mutations in the genes encoding ANP, BNP, or GC-A fail to phenocopy CNP/GC-B-disrupted mice (Kishimoto et al. [2011]). Our recent observations of GC-B expression in normal fetal pituitary tissue and in a range of human pituitary adenomas (including those from acromegalics) strongly ...
# GC-B [4] = conditions: 293 T cells; ref Abbey-Hosch et al. [2005]; cited from earlier work
# From the text: as §1
# GH3 cells = test: Basal cGMP accumulation in GH3 cells after pre-treatment; format: cell-based, rat; conditions: 100 nM TRH, PMA or PACAP, 30 min pre-treatment; ns, P > 0.05; Fig. 7a
# From the text: as §2, §3, §4, §5
molecule,measurement,setting,value
"gonadotrophin-releasing hormone (QHWSYGLRPG; ends and bridges not checked; UniProt P01148 24-33, looked up)",heterologous desensitization of GC-B signaling,"GC-B [1]; ref McArdle et al. [1994], Fowkes et al. [2000]",can cause the heterologous desensitization of GC-B signaling in αT3-1 cells
CN(C)CCCn1cc(C2=C(c3c[nH]c4ccccc34)C(=O)NC2=O)c2ccccc21 [GF109203X],reversal of PKC-dependent desensitization,[2],"capable of reversing the effect, as has been described previously in human airway smooth muscle cells"
same,"CNP-stimulated cGMP, % of control response to CNP (TRH desensitization reversed to)","GC-B [3]; 1 μM GF109203X 30 min, then GF109203X + 100 nM TRH 30 min, ns compared with control, Fig. 7b",76.4 ± 17.2%
"Nc1nc2c(ncn2[C@@H]2O[C@@H]3COP(=O)(O)O[C@H]3[C@H]2O)c(=O)[nH]1 [cGMP, cyclic guanosine 3’,5’ monophosphate]",growth hormone secretion,growth hormone secretion,act as growth hormone secretogogs
"CCCCCCCCCCCCCC(=O)O[C@@H]1[C@@H](C)[C@@]2(O)[C@@H](C=C(CO)C[C@]3(O)C(=O)C(C)=C[C@@H]23)[C@@H]2C(C)(C)[C@]12OC(C)=O [PMA, phorbol-12-myristate-13-acetate]",desensitization of GC-B activity,GC-B [1]; ref Fowkes et al. [2000],shown to desensitize GC-B activity in 293 T cells and αT3-1 cells
same,desensitization of GC-B activity,GC-B [4],shown to desensitize GC-B activity in 293 T cells and αT3-1 cells
same,reduction in CNP-stimulated cGMP accumulation compared with control,"GC-B [3]; 100 nM, 30 min pre-treatment without IBMX, ***P < 0.001, Fig. 7a",51.9 ± 2.8%
same,basal cGMP accumulation,GH3 cells,failed to alter basal cGMP accumulation
